Measured values: patent US11701369B2, “Polymeric bile acid derivatives inhibit Hepatitis B and D virus and NTCP transport” (Huahui Health Ltd., priority 2014, dated 2023)

tested on: HBV; test: HBV infection assay on HepG2-NTCP cells (secreted HBeAg by ELISA); assay type: cell-based, Hepatitis B virus; settings: HepG2-NTCP cells, secreted HBeAg
Description: HBV and HDV infection assay. HepG2NTCP Cells were cultured in PMM for 12-24 hrs before infection, and then inoculated with 200 multiplicities of genome equivalents (mge) of HBV, or 500 mge of HDV in the presence of 5% PEG8000 in PMM at 37° C. for about 24 hrs. Chemicals to be tested were added to the cells as indicated in the specific assays. The inoculum was replenished by PMM post infection. The infections were detected at day 5 post infection (dpi).
ELISA assay for the detection of HBeAg and HBsAg. ELISA kits for HBeAg and HBsAg detection were from Wantai Pharm Inc. (Beijing, China). Supernatant from infected HepG2NTCP cells was collected on 2-5 days post infection. The secreted HBeAg and HBsAg in the culture medium was measured with a commercial kit from Wantai Pharm Inc (Beijing, China) by following the manufactory's instructions.

SMILES	inhibition of HBV infection (in words)
C[C@H](CCC(=O)OCCCCC[C@@H]1SC[C@@H]2NC(=O)N[C@@H]21)[C@H]1CC[C@H]2C3[C@@H](O)CC4C[C@H](O)CC[C@]4(C)[C@H]3CC[C@]12C (some centres unmarked) [Biotin-UDCA]	did not show significantly improved inhibitory efficiency over the natural monomeric TUDCA
C[C@H](CCC(=O)NCCCC1(C)N=N1)[C@H]1CC[C@H]2[C@@H]3[C@@H](O)CC4C[C@H](O)CC[C@]4(C)[C@H]3CC[C@]12C (some centres unmarked) [Diz-UDCA, Diz-Ursodeoxycholic acid]	did not show significantly improved inhibitory efficiency over the natural monomeric TUDCA
CC(=O)O[C@@H]1CC[C@@]2(C)C(C1)C[C@H](O)[C@H]1[C@@H]3CC[C@H]([C@H](C)CCC(=O)NCCS(=O)(=O)O)[C@@]3(C)CC[C@@H]12 (some centres unmarked) [3-OAc-TUDCA]	did not show significantly improved inhibitory efficiency over the natural monomeric TUDCA
CCN(CCCN(C)C)C(=O)OC(=O)CC[C@@H](C)[C@H]1CC[C@H]2[C@@H]3[C@@H](O)CC4C[C@H](O)CC[C@]4(C)[C@H]3CC[C@]12C (some centres unmarked) [CA-UDCA, Carbamic-UDCA]	did not show significantly improved inhibitory efficiency over the natural monomeric TUDCA
C[C@H](CCC(=O)NCCS(=O)(=O)O)[C@H]1CC[C@H]2[C@@H]3[C@@H](O)CC4C[C@@H](O)CC[C@]4(C)[C@H]3CC[C@]12C (some centres unmarked) [Iso-TUDCA, Iso-tauroursodeoxycholic acid]	did not show significantly improved inhibitory efficiency over the natural monomeric TUDCA
C[C@H](CCC(=O)NCCS(=O)(=O)O)[C@H]1CC[C@H]2[C@@H]3[C@@H](O)CC4CC5(CC[C@]4(C)[C@H]3CC[C@]12C)N=N5 (some centres unmarked) [3-Diz-TUDCA]	did not show significantly improved inhibitory efficiency over the natural monomeric TUDCA
C[C@H](CCC(=O)NCCS(=O)(=O)O)[C@H]1CC[C@H]2[C@H]3[C@H](CC[C@]12C)[C@@]1(C)CC[C@@H](O)CC1CC31N=N1 (some centres unmarked) [7-Diz-TUDCA]	did not show significantly improved inhibitory efficiency over the natural monomeric TUDCA
C[C@H](CCC(=O)NCCS(=O)(=O)O)[C@H]1CC[C@H]2[C@@H]3[C@@H](O)CC4C[C@H](O)CC[C@]4(C)[C@H]3CC[C@]12C (some centres unmarked) [TUDCA, Tauroursodeoxycholic acid, reference compound]	most potent one among all bile acid derivatives tested
